Data taken from patent US20200339604A1, “PYRAZOLOPYRIMIDINE COMPOUNDS AS JAK INHIBITORS” (Genentech, Inc., priority 2018, published 2020).
Like-named read-outs stand apart in the source and are kept apart here.

How the values were obtained:
[1] = target: T1, isolated recombinant JAK1 kinase domain (Homo sapiens, UniProt P23458); experiment: JAK enzyme assay, JAK1 kinase domain (Caliper LabChip); assay type: biochemical; conditions: 1.5 nM JAK1, ATP 25 μM, Morrison tight binding model
T1 construct: isolated recombinant JAK1 and JAK2 kinase domain
Procedure: (§1) JAK Enzyme Assays were Carried Out as Follows:
(§2) The activity of the isolated recombinant JAK1 and JAK2 kinase domain was measured by monitoring phosphorylation of a peptide derived from JAK3 ([…] fluorescently labeled on the N-terminus with 5-carboxyfluorescein) using the Caliper LabChip® technology (Caliper Life Sciences, Hopkinton, Mass.). To determine inhibition constants (K), compounds were diluted serially in DMSO and added to 50 μL kinase reactions containing purified enzyme (1.5 nM JAK1, or 0.2 nM JAK2), 100 mM HEPES buffer (pH 7.2), 0.015% Brij-35, 1.5 μM peptide substrate, ATP (25 μM), 10 mM MgCl2, 4 mM DTT at a final DMSO concentration of 2%.
(§3) Reactions were incubated at 22° C. in 384-well polypropylene microtiter plates for 30 minutes and then stopped by addition of 25 µL of an EDTA containing solution (100 mM HEPES buffer (pH 7.2), 0.015% Brij-35, 150 mM EDTA), resulting in a final EDTA concentration of 50 mM. After termination of the kinase reaction, the proportion of phosphorylated product was determined as a fraction of total peptide substrate using the Caliper LabChip® 3000 according to the manufacturer's specifications. K values were then determined using the Morrison tight binding model (Morrison, J. F., Biochim. Biophys. Acta. 185:269-296 (1969); William, J. W. and Morrison, J. F., Meth. Enzymol., 63:437-467 (1979)) modified for ATP-competitive inhibition [Ki=Ki, app/(1+[ATP]/Km,app)].

[2] = target: T2, isolated recombinant JAK2 kinase domain (Homo sapiens, UniProt O60674); experiment: JAK enzyme assay, JAK2 kinase domain (Caliper LabChip); assay type: biochemical; conditions: 0.2 nM JAK2, ATP 25 μM, Morrison tight binding model
T2 construct: isolated recombinant JAK1 and JAK2 kinase domain
Procedure: as §1, §2, §3

[3] = test system: JAK1-dependent STAT6 phosphorylation downstream of IL-13 stimulation, BEAS-2B human bronchial epithelial cells; experiment: JAK1 pathway assay in cell lines: IL-13 stimulated STAT6 phosphorylation in BEAS-2B cells (MSD); assay type: cell-based; conditions: IL-13 stimulation 15 min at EC90, read-out: IL-13 p-STAT6 BEAS-2B IC50
Procedure: JAK1 Pathway Assay in Cell Lines was Carried Out as Follows:
Inhibitor potency (EC50) was determined in cell-based assays designed to measure JAK1 dependent STAT phosphorylation. As noted above, inhibition of IL-4, IL-13, and IL-9 signaling by blocking the Jak/Stat signaling pathway can alleviate asthmatic symptoms in pre-clinical lung inflammation models (Mathew et al., 2001, J Exp Med 193(9): 1087-1096; Kudlacz et. al., 2008, Eur J. Pharmacol 582(1-3): 154-161).
In one assay approach, TF-1 human erythroleukemia cells obtained from the American Type Culture Collection (ATCC; Manassas, Va.) were used to measure JAK1-dependent STAT6 phosphorylation downstream of IL-13 stimulation. Prior to use in the assays, TF-1 cells were starved of GM-CSF overnight in OptiMEM medium (Life Technologies, Grand Island, N.Y.) supplemented with 0.5% charcoal/dextran stripped fetal bovine serum (FBS), 0.1 mM non-essential amino acids (NEAA), and 1 mM sodium pyruvate. The assays were run in 384-well plates in serum-free OptiMEM medium using 300,000 cells per well. In a second assay approach, BEAS-2B human bronchial epithelial cells obtained from ATCC were plated at 100,000 cells per well of a 96-well plate one day prior to the experiment. The BEAS-2B assay was run in complete growth medium (bronchial epithelial basal medium plus bulletkit; Lonza; Basel, Switzerland).
Test compounds were serially diluted 1:2 in DMSO and then diluted 1:50 in medium just before use. Diluted compounds were added to the cells, for a final DMSO concentration of […], and incubated for 30 m (for the TF-1 assay) or […] (for the BEAS-2B assay) at 37° C. Then, cells were stimulated with human recombinant cytokine at their respective EC90 concentrations, as previously determined for each individual lot. Cells were stimulated with IL-13 (R&D Systems, Minneapolis, Minn.) for 15 min at 37° C. The TF-1 cell reactions were stopped by the direct addition of 10× lysis buffer (Cell Signaling Technologies, Danvers, Mass.), whereas the BEAS-2B cell incubations were halted by the removal of medium and addition of 1× lysis buffer. The resultant samples were frozen in the plates at −80° C. Compound mediated inhibition of STAT6 phosphorylation was measured in the cell lysates using MesoScale Discovery (MSD) technology (Gaithersburg, Md.).

T2 sequence (O60674 849-1124 limits assumed): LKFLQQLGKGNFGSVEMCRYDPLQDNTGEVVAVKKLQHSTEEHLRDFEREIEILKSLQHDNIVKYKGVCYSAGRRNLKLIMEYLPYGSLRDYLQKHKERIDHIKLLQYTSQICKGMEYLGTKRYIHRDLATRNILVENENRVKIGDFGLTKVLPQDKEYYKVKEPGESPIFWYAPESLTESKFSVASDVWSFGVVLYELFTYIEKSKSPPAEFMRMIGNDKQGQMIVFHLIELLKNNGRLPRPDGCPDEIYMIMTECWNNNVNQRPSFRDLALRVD
T1 sequence (P23458 875-1153 limits assumed): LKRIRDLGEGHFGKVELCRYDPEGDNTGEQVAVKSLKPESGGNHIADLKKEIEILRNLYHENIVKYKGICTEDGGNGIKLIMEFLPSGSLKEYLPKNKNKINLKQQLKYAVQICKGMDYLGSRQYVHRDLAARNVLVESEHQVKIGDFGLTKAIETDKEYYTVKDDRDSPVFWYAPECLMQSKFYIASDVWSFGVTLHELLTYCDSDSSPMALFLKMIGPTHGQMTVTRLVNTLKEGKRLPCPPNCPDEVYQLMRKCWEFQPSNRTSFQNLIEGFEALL

Row | Ki [1] | Ki [2] | SMILES | IC50 ([3]; Homo sapiens, BEAS-2B, […]) | IC50 [3]
1 | 1.8 nM | 0.48 nM | O=C(Nc1cn(C2CCNC2=O)nc1-c1cc(Cl)ccc1OC(F)F)c1cnn2cccnc12 (single isomer, unassigned) [Example 5, N-[3-[5-chloro-2-(difluoromethoxy)phenyl]-1-(2-oxopyrrolidin-3-yl)pyrazol-4-yl]pyrazolo[1,5-a]pyrimidine-3-carboxamide] | 40 nM | 
2 | 4.1 nM | 2.1 nM | CN1CCCC(n2cc(NC(=O)c3cnn4cccnc34)c(-c3cc(Cl)ccc3OC(F)F)n2)C1=O (single isomer, unassigned) [Example 21, N-[3-[5-chloro-2-(difluoromethoxy)phenyl]-1-(1-methyl-2-oxo-3-piperidyl)pyrazol-4-yl]pyrazolo[1,5-a]pyrimidine-3-carboxamide] |  | 74 nM
3 | 2.5 nM | 0.81 nM | CN1CC[C@@H](n2cc(NC(=O)c3cnn4cccnc34)c(-c3cc(Cl)ccc3OC(F)F)n2)C1=O (stereo in doubt) [Example 3, N-[3-[5-chloro-2-(difluoromethoxy)phenyl]-1-[rac-(3R)-1-methyl-2-oxo-pyrrolidin-3-yl]pyrazol-4-yl]pyrazolo[1,5-a]pyrimidine-3-carboxamide] | 50 nM | 
4 | 0.77 nM | 0.5 nM | O=C(Nc1cn(C2CCOC2=O)nc1-c1cc(Cl)ccc1OC(F)F)c1cnn2cccnc12 (single isomer, unassigned) [Example 27, N-[3-[5-chloro-2-(difluoromethoxy)phenyl]-1-(2-oxotetrahydrofuran-3-yl)pyrazol-4-yl]pyrazolo[1,5-a]pyrimidine-3-carboxamide] |  | 24 nM
5 | 0.28 nM | 0.39 nM | CN1CCC(n2cc(NC(=O)c3cnn4cccnc34)c(-c3cc(SC(F)F)ccc3OC(F)F)n2)C1=O (single isomer, unassigned) [Example 18, N-[3-[2-(difluoromethoxy)-5-(difluoromethyl-sulfanyl)phenyl]-1-(1-methyl-2-oxo-pyrrolidin-3-yl)pyrazol-4-yl]pyrazolo[1,5-a]pyrimidine-3-carboxamide] |  | 15 nM
6 | 0.37 nM | 0.21 nM | O=C(Nc1cn(C2CCOC2=O)nc1-c1cc(Cl)ccc1OC(F)F)c1cnn2cccnc12 (racemic) [Example 25, N-[3-[5-chloro-2-(difluoromethoxy)phenyl]-1-(2-oxotetrahydrofuran-3-yl)pyrazol-4-yl]pyrazolo[1,5-a]pyrimidine-3-carboxamide; formic acid] | 19 nM | 
7 | 0.18 nM | 0.24 nM | CSc1ccc(OC(F)F)c(-c2nn(C3CCN(C)C3=O)cc2NC(=O)c2cnn3cccnc23)c1 (single isomer, unassigned) [Example 6, N-[3-[2-(difluoromethoxy)-5-methylsulfanyl-phenyl]-1-(1-methyl-2-oxo-pyrrolidin-3-yl)pyrazol-4-yl]pyrazolo[1,5-a]pyrimidine-3-carboxamide] |  | 11 nM
8 | 0.15 nM | 0.096 nM | CSc1ccc(OC(F)F)c(-c2nn(C3CCOC3=O)cc2NC(=O)c2cnn3cccnc23)c1 (single isomer, unassigned) [Example 30, N-[3-[2-(difluoromethoxy)-5-methylsulfanyl-phenyl]-1-(2-oxotetrahydrofuran-3-yl)pyrazol-4-yl]pyrazolo[1,5-a]pyrimidine-3-carboxamide] |  | 11 nM
9 | 0.4 nM | 0.23 nM | CS(=O)(=O)c1ccc(OC(F)F)c(-c2nn(C3CCOC3=O)cc2NC(=O)c2cnn3cccnc23)c1 (single isomer, unassigned) [Example 41, N-[3-[2-(difluoromethoxy)-5-methylsulfonyl-phenyl]-1-(2-oxotetrahydrofuran-3-yl)pyrazol-4-yl] pyrazolo[1,5-a]pyrimidine-3-carboxamide] |  | 99 nM
10 | 2.6 nM | 1.5 nM | CN1CCN(C(=O)CN2CCC(n3cc(NC(=O)c4cnn5cccnc45)c(-c4cc(Cl)ccc4OC(F)F)n3)C2=O)CC1 (single isomer, unassigned) [Example 17, N-[3-[5-chloro-2-(difluoromethoxy)phenyl]-1-[1-[2-(4-methylpiperazin-1-yl)-2-oxo-ethyl]-2-oxo-pyrrolidin-3-yl]pyrazol-4-yl]pyrazolo[1,5-a]pyrimidine-3-carboxamide] |  | 300 nM
11 | 1.2 nM | 1.4 nM | O=C(Nc1cn(C2CCN(CCN3CCOCC3)C2=O)nc1-c1cc(Cl)ccc1OC(F)F)c1cnn2cccnc12 (single isomer, unassigned) [Example 14, N-[3-[5-chloro-2-(difluoromethoxy)phenyl]-1-[1-(2-morpholinoethyl)-2-oxo-pyrrolidin-3-yl]pyrazol-4-yl]pyrazolo[1,5-a] pyrimidine-3-carboxamide] | 79 nM | 
12 | 2.5 nM | 0.55 nM | CN1CCC(n2cc(NC(=O)c3cnn4cccnc34)c(-c3cc(SC(F)F)ccc3OC(F)F)n2)C1=O (single isomer, unassigned) [Example 19, N-[3-[2-(difluoromethoxy)-5-(difluoromethyl-sulfanyl)phenyl]-1-(1-methyl-2-oxo-pyrrolidin-3-yl)pyrazol-4-yl]pyrazolo[1,5-a]pyrimidine-3-carboxamide] |  | 59 nM
13 | 0.35 nM | 0.2 nM | O=C(Nc1cn(C2CCOC2=O)nc1-c1cc(Cl)ccc1OC(F)F)c1cnn2cccnc12 (single isomer, unassigned) [Example 28, N-[3-[5-chloro-2-(difluoromethoxy)phenyl]-1-(2-oxotetrahydrofuran-3-yl)pyrazol-4-yl]pyrazolo[1,5-a]pyrimidine-3-carboxamide] |  | 11 nM
14 | 2.1 nM | 1.1 nM | CN1CCC(n2cc(NC(=O)c3cnn4cccnc34)c(-c3cc(OC(F)F)ccc3OC(F)F)n2)C1=O (single isomer, unassigned) [Example 9, N-[3-[2,5-bis(difluoromethoxy)phenyl]-1-(1-methyl-2-oxo-pyrrolidin-3-yl)pyrazol-4-yl]pyrazolo[1,5-a]pyrimidine-3-carboxamide] |  | 67 nM
15 | 0.17 nM | 0.11 nM | O=C(Nc1cn(C2CCOC2=O)nc1-c1cc(SC(F)F)ccc1OC(F)F)c1cnn2cccnc12 (single isomer, unassigned) [Example 32, N-[3-[2-(difluoromethoxy)-5-(difluoromethyl-sulfanyl)phenyl]-1-(2-oxotetrahydrofuran-3-yl)pyrazol-4-yl]pyrazolo[1,5-a]pyrimidine-3-carboxamide] |  | 6.6 nM
16 | 0.26 nM | 0.18 nM | O=C(Nc1cn(C2CCOC2=O)nc1-c1cc(OC(F)F)ccc1OC(F)F)c1cnn2cccnc12 (single isomer, unassigned) [Example 37, N-[3-[2,5-bis(difluoromethoxy)phenyl]-1-(2-oxotetrahydrofuran-3-yl)pyrazol-4-yl]pyrazolo[1,5-a]pyrimidine-3-carboxamide] |  | 14 nM
